PubChem BioAssay (NCI)
“And” between values parts separate entries of the source, which are not always exact repeats. Equal values may be shown once.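 Five compound concentrations were applied to cells in 96-well plates for 48 hours; endpoints were derived by simple linear interpolation of the resulting dose-response curve. GI50 = concentration required for 50% inhibition of growth. The concentration for full growth arrest is given as TGI.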

How the values were obtained:
Assay in all cases: NCI tumour cell line growth inhibition, 48 h
[1] = system: RXF 393 renal
[2] = system: SF-268 CNS
[3] = system: NCI/ADR-RES ovarian
[4] = system: KM12 colon
[5] = system: U251 CNS
[6] = system: SK-MEL-5 melanoma
[7] = system: SR leukemia
[8] = system: MDA-MB-231 breast
[9] = system: SK-OV-3 ovarian
[10] = system: HOP-92 NSCLC

Compound	GI50 [1]	TGI [1]	GI50 [2]	TGI [2]	GI50 [3]	TGI [3]	GI50 [4]	TGI [4]	GI50 [5]	TGI [5]	GI50 [6]	TGI [6]	GI50 [7]	TGI [7]	GI50 [8]	TGI [8]	TGI [9]	TGI [10]	GI50 [9]	GI50 [10]
COC(=O)C/C(C)=C/[C@@H](O)[C@H]1O[C@@H]2CC/C(Cl)=C/C/C=C(/C)[C@H](OC(C)=O)CC(=O)O[C@@H]1C2	2.34 µM	9.23 µM	1.07 µM	4.61 µM	9.91 µM	> 25 µM	2.64 µM	9.63 µM	4.55 µM	13.2 µM	0.875 µM	3.42 µM	0.813 µM	3.19 µM	4.07 µM	11.8 µM	–	–	–	–
Brc1nc2c3ccccc3ncn2c1Br	–	86.1 µM	–	> 100 µM	–	–	–	> 100 µM	–	> 100 µM	–	39.3 µM	–	> 100 µM	–	–	> 100 µM	76.5 µM	–	–
COc1cccc2c(Nc3ccc(C(=O)NCCNCCO)cc3)cc(-c3ccccc3)nc12	33.1 µM	93.1 µM	–	–	> 100 µM	> 100 µM	33.2 µM	> 100 µM	5.89 µM	24.9 µM	38.6 µM	> 100 µM	–	–	25.5 µM	73.5 µM	> 100 µM	51.4 µM	86.7 µM	16 µM
CCC12CCC(O)C1N(C)CCC2Sc1ccccc1 (stereo not given)	–	> 100 µM	–	> 100 µM	–	–	–	> 100 µM	–	> 100 µM	–	> 100 µM	–	–	–	–	> 100 µM	94.3 µM	–	–
Cc1cc(N(CCC#N)CCC#N)ccc1N=Nc1ccccc1[N+](=O)[O-]	–	> 100 µM	–	> 100 µM	–	–	–	> 100 µM	–	> 100 µM	–	> 100 µM	–	–	–	–	> 100 µM	–	–	–
CN(C)CCN1N=Nc2cccc3cccc1c23	–	–	–	> 100 µM	–	–	–	> 100 µM	–	> 100 µM	–	> 100 µM	–	40.2 µM	–	–	> 100 µM	> 100 µM	–	–
O=C(CCl)Nc1ccccc1SCc1cc(Cl)cc2c1OCOC2	7.24 µM	20.9 µM	7.14 µM	23.5 µM	17.5 µM	84.8 µM	13.8 µM	27.4 µM	16.1 µM	31.3 µM	4.09 µM	16.4 µM	–	–	5.97 µM	28 µM	33.5 µM	17.9 µM	12.2 µM	3.17 µM
N#C[C@]12CC3(CC[C@H]1CC1(C2)OCCO1)OCCO3	–	> 100 µM	–	> 100 µM	–	–	–	> 100 µM	–	> 100 µM	–	> 100 µM	–	> 100 µM	–	–	> 100 µM	–	–	–
O=NN(CCCl)C(=O)NCc1ccc[n+]([O-])c1	–	> 100 µM	–	> 100 µM	–	–	–	> 100 µM	–	> 100 µM	–	> 100 µM	–	> 100 µM	–	–	> 100 µM	> 100 µM	–	–
O=C1CC2(CCCc3sccc32)C(=O)N1 (stereo not given)	–	> 100 µM	–	> 100 µM	–	> 100 µM	–	> 100 µM	–	> 100 µM	–	> 100 µM	–	–	–	> 100 µM	> 100 µM	> 100 µM	–	–
CC1=CCP(C(F)(F)F)P(C(F)(F)F)C1 (stereo not given)	–	58.3 µM	–	> 100 µM	–	–	–	> 100 µM	–	> 100 µM	–	> 100 µM	–	> 100 µM	–	–	> 100 µM	> 100 µM	–	–
C=CC[P@@]1(=O)O[C@H](c2ccccc2)C(C)N1C(C)C (stereo not given in full)	–	> 100 µM	–	> 100 µM	–	–	–	> 100 µM	–	> 100 µM	–	> 100 µM	–	> 100 µM	–	–	> 100 µM	–	–	–
Cc1c2cc[n+](C)cc2c(C)c2c1[nH]c1ccc(OC(C)C)cc12	7.26 µM and 20.4 µM	> 100 µM	–	1.88 µM and 2.82 µM	–	–	–	13.3 µM and 11.4 µM	0.145 µM and 0.39 µM	2.93 µM and 9.46 µM	–	3.32 µM and 4.01 µM	2.34 µM and 9.55 µM	10.5 µM and > 54.3 µM	–	–	> 85.5 µM	13.5 µM and 16.8 µM	1.98 µM and 4.47 µM	–
O=C(c1ccccc1)c1ccc2cccc(O)c2n1	–	69 µM	–	> 100 µM	–	–	–	> 100 µM	–	68.3 µM	–	75.8 µM	–	> 100 µM	–	–	–	–	–	–
CN(C)CCCNC(=O)c1cc(NC(=O)c2cc(NC(=O)CCCN3c4ccccc4C=Cc4ccccc43)cn2C)cn1C	8.61 µM	85 µM	5.06 µM	> 100 µM	23.6 µM	59.9 µM	2.42 µM	10.8 µM	–	–	–	–	–	–	4.04 µM	96 µM	> 100 µM	78.7 µM	21.9 µM	10 µM
CCCCCCC(O)C/C=C/CCCCCC/C(C(=O)OC)=C(/O)C(=O)OCC (stereo not given)	–	–	–	> 100 µM	–	–	–	> 100 µM	–	> 100 µM	–	> 100 µM	–	> 100 µM	–	–	> 100 µM	> 100 µM	–	–
COC(=O)C(=O)C(C(=O)C(=O)Nc1ccc([N+](=O)[O-])cc1[N+](=O)[O-])c1nc2ccc([N+](=O)[O-])cc2[nH]c1=O (stereo not given)	–	> 100 µM	–	> 100 µM	–	–	–	> 100 µM	–	> 100 µM	–	–	–	> 100 µM	–	–	> 100 µM	> 100 µM	–	–
N#Cc1c2ccccc2c2nnc3cc(C(F)(F)F)ccc3n12	–	–	19.2 µM	> 100 µM	–	–	> 100 µM	> 100 µM	51.2 µM	> 100 µM	–	–	31.3 µM	> 100 µM	–	–	> 100 µM	> 100 µM	> 100 µM	51.5 µM
COc1cc(/C=C2\CC(C)CC3C2=NN(c2ccccc2)C3c2cc(OC)c(OC)c(OC)c2)cc(OC)c1OC (stereo not given)	–	–	14.1 µM	44.6 µM	12.1 µM	> 100 µM	7.28 µM	40.8 µM	9.77 µM	39 µM	11.8 µM	24.2 µM	–	–	14.4 µM	71 µM	41 µM	37.1 µM	9.14 µM	13.6 µM
Cc1ccc(C)c(-n2c(-c3ccc(Br)cc3)csc2=NC(=O)c2ccccc2F)c1	> 100 µM	> 100 µM	> 100 µM	> 100 µM	> 100 µM	> 100 µM	–	–	> 100 µM	> 100 µM	2.62 µM	> 100 µM	–	–	> 100 µM	> 100 µM	> 100 µM	–	> 100 µM	–
